Results from patent US20260021059A1, “THERAPEUTIC COMBINATIONS AND METHODS” (RUTGERS, THE STATE UNIVERSITY OF NEW JERSEY, priority 2022, published 2026).
“Also recorded” adds a separate entry of the source.

Columns and labels:
rats [1] = test: Palatable food intake (binge-like eating) of a fat/sucrose mixture during 30 min exposure periods; assay type: in vivo; conditions: for palatable food intake: N=12; for palatable food intake (binge-like eating): N=5
Method: Rats were trained to consume a palatable fat mixture (90% vegetable shortening, 10% sucrose) during brief exposure periods (30 mins) that occurred twice per week. The amount of palatable food consumed during these 30 min exposure periods was measured.

BED patients = conditions: daily LDX administration; cited from earlier work
rats [2] = test: Locomotor activity / behavioral sensitization on repeated (7 d) dosing; assay type: in vivo; conditions: d-amphetamine alone 0.375 mg/kg i.p., 7 consecutive days; recorded 1 hour following treatment
Method: Rats were measured for baseline locomotor activity (Day 0). Rats then received injections of saline, d-amphetamine, or the combination of d-amphetamine and suvorexant, for 7 consecutive days. Locomotor activity was recorded for 1 hour following treatment.

rats [3] = test: Sleep EEG/EMG telemetry recordings over the 12 hours inactive period; conditions: d-amphetamine alone 0.75 mg/kg i.p., 1 hr prior to onset of inactive period

## Cc1ccc(-n2nccn2)c(C(=O)N2CCN(c3nc4cc(Cl)ccc4o3)CC[C@H]2C)c1 [suvorexant]
Rats [1]; suvorexant alone 10 mg/kg i.p. prior to test session
  palatable food intake: no significant change; also recorded: no effect

## Cc1nc2ccc(NC(=O)Nc3ccnc4cccnc34)cc2o1 [SB334867]
Rats [1]; SB334867 alone 10 mg/kg i.p.
  palatable food intake (binge-like eating): observed only at the highest dose; also recorded: A significant reduction was observed only at a high dose
Rats [1]; SB334867 alone 30 mg/kg i.p.
  palatable food intake (binge-like eating): significant change; also recorded: significant reduction

## C[C@@H](Cc1ccccc1)NC(=O)[C@@H](N)CCCCN [LDX, lisdexamfetamine]
BED patients
  binge frequency: highly effective at reducing binge frequency
  patients reporting complete binge cessation: 35-50%

## C[C@H](N)Cc1ccccc1 [d-amphetamine]
Rats [1]; d-amphetamine alone 0.1875 mg/kg i.p. prior to test session
  palatable food intake: no significant change; also recorded: no effect
Rats [1]; d-amphetamine alone 0.375 mg/kg i.p. prior to test session
  palatable food intake: no significant change; also recorded: no effect
Rats [2]
  locomotor activity (behavioral reactivity): significantly higher; also recorded: increased locomotor activity
Rats [3]
  total time in REM sleep compared to baseline: decreased
  total time in active wake compared to baseline: increased
